From ChEMBL document CHEMBL1799925, “Inhibition of sphingosine 1-phosphate lyase for the treatment of rheumatoid arthritis: discovery of (E)-1-(4-((1R,2S,3R)-1,2,3,4-tetrahydroxybutyl)-1H-imidazol-2-yl)ethanone oxime (LX2931) and (1R,2S,3R)-1-(2-(isoxazol-3-yl)-1H-imidazol-4-yl)butane-1,2,3,4-tetraol (LX2932)” (J Med Chem, 2010)

Tests used:
Mus musculus = assay: Immunomodulatory activity in 129/SvEvBrd X C57BL/6 F1 mouse assessed as decrease in peripheral blood lymphocyte count at 30 mg/kg, po measured after 18 hrs by complete blood count analysis relative to control; assay type: ADME, organism-based; design: dose 30 mg/kg, route oral; scale not given: the % may be the effect or the level left; details: in vivo
[1] = AUC (0 to infinity) in 129/SvEvBrd X C57BL/6 F1 mouse at 10 mg/kg, po by LC/MS/MS analysis; assay type: ADME, organism-based, Plasma; design: time infinity, dose 10 mg/kg, route oral; details: 129/SvEvBrd X C57BL/6 F1, mouse, plasma

Structure (SMILES) | Activity (Mus musculus) [%] | AUC(0-inf) [1] [µM·h]
CC(C)c1cc(-c2nc([C@@H](O)[C@H](O)[C@H](O)CO)c[nH]2)no1.Cl | -30 | 12.8
CCc1conc1-c1nc([C@@H](O)[C@H](O)[C@H](O)CO)c[nH]1.Cl | -55 | 26.9
CCOc1cc(-c2nc([C@@H](O)[C@H](O)[C@H](O)CO)c[nH]2)no1.Cl | -26 | 9.1
CC(=O)c1nc([C@@H](O)[C@H](O)[C@H](O)CO)c[nH]1.Cl | -25 | 15
CC(=O)c1c(-c2nc([C@@H](O)[C@H](O)[C@H](O)CO)c[nH]2)noc1C.Cl | -6 | 11.7
Cc1cc(-c2nc([C@@H](O)[C@H](O)[C@H](O)CO)c[nH]2)no1.Cl | -39 | 12.5
CN(C)Cc1cc(-c2nc([C@@H](O)[C@H](O)[C@H](O)CO)c[nH]2)no1.Cl | -10 | 5.9
Cl.OC[C@@H](O)[C@@H](O)[C@H](O)c1c[nH]c(-c2cc(C3CC3)on2)n1 | -19 | 9.6
Cl.OCc1cc(-c2nc([C@@H](O)[C@H](O)[C@H](O)CO)c[nH]2)no1 | -7 | 6.1
Cl.OC[C@@H](O)[C@@H](O)[C@H](O)c1c[nH]c(-c2cc(-c3ccccc3)on2)n1 | -2 | 10.3
Cc1onc(-c2nc([C@@H](O)[C@H](O)[C@H](O)CO)c[nH]2)c1[N+](=O)[O-].Cl | -27 | 8.2
Cl.OC[C@@H](O)[C@@H](O)[C@H](O)c1c[nH]c(-c2cc(C(F)(F)F)on2)n1 | 2 | 7.8
Cl.OC[C@@H](O)[C@@H](O)[C@H](O)c1c[nH]c(C2=NOCC2)n1 | -12 | 8.3
Cc1cc(-c2nc([C@@H](O)[C@H](O)[C@H](O)CO)c[nH]2)on1.Cl | -4 | 5.3
